From patent US12419900B2, “Induction of synthetic lethality with epigenetic therapy” (The Johns Hopkins University, priority 2017, dated 2025)

Tests used:
[1] = tested on: primary hepatocytes; assay: Cell viability and growth, alisertib x decitabine dose matrix; assay type: cell-based; settings: for Percent Growth Inhibition: Alisertib 0 nM
Experimental: The synergy analysis of the combination of decitabine and alisertib was evaluated in a series of 18 cancer cell lines (9 prostate, 1 ovarian, 1 lung, 2 colon, 2 central nervous system, and 3 breast cancer cell lines) and 2 non-cancer cell models. A final cumulative Bliss synergy score was calculated based on the sum of the synergy values from each of the 16 combinations of 0 nM, 10 nM, 50 nM, and 100 nM of alsertib together with 0 nM, 50 nM, 100 nM, and 250 nM of decitabine.

[2] = tested on: DNMT1; assay: Protein levels in DU145 cells (data not shown); assay type: cell-based
[3] = tested on: residual xenograft tumors; assay: KI-67 and Caspase 3A staining of residual xenograft tumors; assay type: in vivo, nude mice; settings: decitabine pre-treatment experiment
Description: The proliferative index and apoptotic fraction in residual xenograft tumors from the decitabine pre-treatment experiment was then examined. Sample cells from each of the vehicle control, decitabine pre-treatment alone, alisertib alone, and decitabine pretreatment in combination with alisertib were stained with either KI-67 or Caspase 3A.

[4] = tested on: DU145 xenograft tumor; assay: In vivo xenograft study of DU145, decitabine and alisertib; design: species or system nude mice; settings: for tumor growth (FIG. 5A): decitabine alone, alisertib high and low dose alone, combinations concurrent or primed, low and high dose alisertib; for xenograft tissue growth or survival compared to the vehicle control: single agent therapy at the doses tested (decitabine 0.75 mg/kg; alisertib 15 or 25 mg/kg)
Experimental: Using in vivo xenograft studies of the DU145 prostate cancer cell line, the effect was explored of the treatment of two dose levels of alisertib alone or in combination with decitabine using two different treatment time schedules over a period of seven weeks. First, nude mice were inoculated with DU145 cells that were allowed to incubate for 10-12 days to establish xenograft tumor. The inoculated mice were then treated concomitantly with both a high dose and a low dose of alisertib and decitabine in the first two weeks or primed with decitabine alone for two weeks followed by alisertib alone in the first cycle. The dose of decitabine was held constant at 0.75 mg/kg and given with either low-dose (15 mg/kg) or high-dose (25 mg/kg) alisertib, as indicated in FIG. 4. The cumulative number of doses of decitabine and alisertib was the same in all combination treatment arms in both schedules.

[5] = tested on: DNMT3A; assay: Protein levels in DU145 cells (data not shown); assay type: cell-based
[6] = tested on: Satellite 2 sequences; assay: Bisulfite genomic sequencing of repetitive elements; assay type: cell-based; settings: DU145; vehicle control 45.09%
[7] = tested on: DU145 prostate cancer cells; assay: Alamar blue cell viability and growth, alisertib x decitabine dose matrix; assay type: cell-based; settings: for Percent Growth Inhibition: Alisertib 0 nM
Experimental: DU145 prostate cancer cells and A549 lung cancer cells were treated with varying concentrations (0 nM, 10 nM, 50 nM, and 100 nM) of alisertib in addition to varying concentrations of decitabine (0 nM, 50 nM, 100 nM, and 250 nM). Representative data are shown in FIGS. 2A and 2B, as well as the Tables below. […] In each panel, a dose response of each drug alone and in combination was used in Alamar blue cell viability assays. […] Formal synergy analyses were performed using the Bliss independence score (where values greater than zero indicate greater than additive effect). […] The graph of FIG. 2A is a growth curve of the DU145 prostate cancer cells for the agents alone (decitabine and alisertib separately), a vehicle control, and the agents in combination (decitabine and alisertib together). […] Likewise, the graph of FIG. 2B is a growth curve of the A549 lung cancer cells for the agents alone (decitabine and alisertib separately), a vehicle control, and the agents in combination (decitabine and alisertib together). […] The synergy analysis of the combination of decitabine and alisertib was evaluated in a series of 18 cancer cell lines (9 prostate, 1 ovarian, 1 lung, 2 colon, 2 central nervous system, and 3 breast cancer cell lines) and 2 non-cancer cell models.

[8] = tested on: A549 lung cancer cells; assay: as above; assay type: cell-based; settings: for Percent Growth Inhibition: Alisertib 0 nM
Experimental: DU145 prostate cancer cells and A549 lung cancer cells were treated with varying concentrations (0 nM, 10 nM, 50 nM, and 100 nM) of alisertib in addition to varying concentrations of decitabine (0 nM, 50 nM, 100 nM, and 250 nM). Representative data are shown in FIGS. 2A and 2B, as well as the Tables below. […] Formal synergy analyses were performed using the Bliss independence score (where values greater than zero indicate greater than additive effect). […] The graph of FIG. 2A is a growth curve of the DU145 prostate cancer cells for the agents alone (decitabine and alisertib separately), a vehicle control, and the agents in combination (decitabine and alisertib together). […] Likewise, the graph of FIG. 2B is a growth curve of the A549 lung cancer cells for the agents alone (decitabine and alisertib separately), a vehicle control, and the agents in combination (decitabine and alisertib together). […] The synergy analysis of the combination of decitabine and alisertib was evaluated in a series of 18 cancer cell lines (9 prostate, 1 ovarian, 1 lung, 2 colon, 2 central nervous system, and 3 breast cancer cell lines) and 2 non-cancer cell models.

[9] = tested on: DNMT3B; assay: Western Blot in DU145 cells; assay type: cell-based; settings: 100 nM decitabine, 100 nM alisertib
Experimental: DNA methyltransferase enzymes comprise a family of enzymes including DNMT1, DNMT3A, and DNMT3B. […] In this study, Western Blot analyses for DNMT3B were performed on DU145 cell tissue sample treated with vehicle control; 100 nM alisertib alone; 100 nM decitabine alone; and 100 nM of decitabine in combination with 100 nM of alisertib.

[10] = In vivo toxicity profile of treated mice; settings: FIGS. 7D and 7E
Description: The toxicity profile of the treated mice was observed, and the animals were weighed over the course of the experiment.

[11] = tested on: Aurora Kinase A (AURKA); assay: Western Blot in DU145 cells; assay type: cell-based; settings: 100 nM decitabine, 100 nM alisertib
Experimental: Western Blot analyses for AURKA were performed on DU145 cell tissue sample treated with vehicle control; 100 nM alisertib alone; 100 nM decitabine alone; and 100 nM of decitabine in combination with 100 nM of alisertib.

## COc1cc(Nc2ncc3c(n2)-c2ccc(Cl)cc2C(c2c(F)cccc2OC)=NC3)ccc1C(=O)O [alisertib]
[1]; Hepatocyte, DAC 0 nM, Alisertib 10 nM, read-out: Percent Growth Inhibition
  inhibition at 0.01 µM: 10%
[1]; Hepatocyte, DAC 0 nM, Alisertib 50 nM, read-out: Percent Growth Inhibition
  inhibition at 0.05 µM: 21%
[1]; Hepatocyte, DAC 0 nM, Alisertib 100 nM, read-out: Percent Growth Inhibition
  inhibition at 0.1 µM: 15%
[2]
  DNMT1 levels: did not significantly affect
[3]
  Caspase 3A staining (apoptosis): almost no alteration
  KI-67 staining (cell proliferation): almost no alteration
[4]; Alisertib high dose 25 mg/kg alone, week 0
  Fold Change in Tumor Size, Mean: 1
[4]; Alisertib high dose 25 mg/kg alone, week 1
  Fold Change in Tumor Size, Mean: 1.69
[4]; Alisertib high dose 25 mg/kg alone, week 2
  Fold Change in Tumor Size, Mean: 2.35
[4]; Alisertib high dose 25 mg/kg alone, week 3
  Fold Change in Tumor Size, Mean: 3.16
[4]; Alisertib high dose 25 mg/kg alone, week 4
  Fold Change in Tumor Size, Mean: 5.08
[4]; Alisertib high dose 25 mg/kg alone, week 5
  Fold Change in Tumor Size, Mean: 6.47
[4]; Alisertib high dose 25 mg/kg alone, week 6
  Fold Change in Tumor Size, Mean: 8.46
[4]; Alisertib high dose 25 mg/kg alone, week 7
  Fold Change in Tumor Size, Mean: 9.98
[4]; Alisertib low dose 15 mg/kg alone, week 0
  Fold Change in Tumor Size, Mean: 1
[4]; Alisertib low dose 15 mg/kg alone, week 1
  Fold Change in Tumor Size, Mean: 1.31
[4]; Alisertib low dose 15 mg/kg alone, week 2
  Fold Change in Tumor Size, Mean: 2.25
[4]; Alisertib low dose 15 mg/kg alone, week 3
  Fold Change in Tumor Size, Mean: 2.96
[4]; Alisertib low dose 15 mg/kg alone, week 4
  Fold Change in Tumor Size, Mean: 4.33
[4]; Alisertib low dose 15 mg/kg alone, week 5
  Fold Change in Tumor Size, Mean: 5.12
[4]; Alisertib low dose 15 mg/kg alone, week 6
  Fold Change in Tumor Size, Mean: 6.02
[4]; Alisertib low dose 15 mg/kg alone, week 7
  Fold Change in Tumor Size, Mean: 7.54
[4]
  tumor growth (FIG. 5A): continued to grow at a significant rate
  xenograft tissue growth or survival compared to the vehicle control: did not significantly alter
[5]
  DNMT3A levels: did not significantly affect
[6]
  percent of CpG Satellite 2 methylation: 40.6%
[7]; Aurora kinase inhibitor + decitabine
  growth inhibition of DU-145 cells in combination with decitabine: synergistic growth inhibition
[7]; Homo sapiens, DU-145, DU145, DAC 0 nM, Alisertib 10 nM, read-out: Percent Growth Inhibition
  inhibition at 0.01 µM: 0%
[7]; Homo sapiens, DU-145, DU145, DAC 0 nM, Alisertib 50 nM, read-out: Percent Growth Inhibition
  inhibition at 0.05 µM: 0%
[7]; Homo sapiens, DU-145, DU145, DAC 0 nM, Alisertib 100 nM, read-out: Percent Growth Inhibition
  inhibition at 0.1 µM: 2%
[8]; Homo sapiens, DAC 0 nM, Alisertib 10 nM, read-out: Percent Growth Inhibition
  inhibition at 0.01 µM: 0%
[8]; Homo sapiens, DAC 0 nM, Alisertib 50 nM, read-out: Percent Growth Inhibition
  inhibition at 0.05 µM: 0%
[8]; Homo sapiens, DAC 0 nM, Alisertib 100 nM, read-out: Percent Growth Inhibition
  inhibition at 0.1 µM: 1%
[9]
  DNMT3B levels: significantly reduce
[10]
  AST and ALT (liver function): elevated

## Nc1ncn([C@H]2C[C@H](O)[C@@H](CO)O2)c(=O)n1 [decitabine, 5-aza-2′-deoxycytidine]
[1]; DAC 50 nM
  Percent Growth Inhibition: 0.16
[1]; DAC 100 nM
  Percent Growth Inhibition: 0.30
[1]; DAC 250 nM
  Percent Growth Inhibition: 0.29
[2]
  DNMT1 levels: significantly reduced
[3]
  Caspase 3A staining (apoptosis): almost no alteration
  KI-67 staining (cell proliferation): almost no alteration
[4]; DAC 0.75 mg/kg alone, week 0
  Fold Change in Tumor Size, Mean: 1
[4]; DAC 0.75 mg/kg alone, week 1
  Fold Change in Tumor Size, Mean: 1.31
[4]; DAC 0.75 mg/kg alone, week 2
  Fold Change in Tumor Size, Mean: 1.90
[4]; DAC 0.75 mg/kg alone, week 3
  Fold Change in Tumor Size, Mean: 2.68
[4]; DAC 0.75 mg/kg alone, week 4
  Fold Change in Tumor Size, Mean: 3.81
[4]; DAC 0.75 mg/kg alone, week 5
  Fold Change in Tumor Size, Mean: 4.60
[4]; DAC 0.75 mg/kg alone, week 6
  Fold Change in Tumor Size, Mean: 5.10
[4]; DAC 0.75 mg/kg alone, week 7
  Fold Change in Tumor Size, Mean: 5.49
[4]
  tumor growth (FIG. 5A): continued to grow at a significant rate
  xenograft tissue growth or survival compared to the vehicle control: did not significantly alter
[6]
  percent of CpG Satellite 2 methylation: 33.33%
[7]; DU145, DAC 50 nM
  Percent Growth Inhibition: 0.04
[7]; DU145, DAC 100 nM
  Percent Growth Inhibition: 0.08
[7]; DU145, DAC 250 nM
  Percent Growth Inhibition: 0.77
[7]; DU145, low dose decitabine 100 nM
  cell survival in tissue culture: most of the cells survived
[8]; DAC 50 nM
  Percent Growth Inhibition: 0.03
[8]; DAC 100 nM
  Percent Growth Inhibition: 0
[8]; DAC 250 nM
  Percent Growth Inhibition: 0.14
[11]
  AURKA protein levels: significantly induce
[9]
  DNMT3B levels: did not significantly alter
